Blank lines part the entries; values can stand above or below the molecule they belong to. Calls of active or inactive are those of the source. The rule behind the calls is not given here. Non-standard residues stand in square brackets, D forms with d. Residues, ends and D or L forms follow the SMILES beside them. ξ: configuration not given here. ξS = NC(CO)C(=O)O
Tests used:
[1] = biological target: T1, BTB/POZ domain-containing protein KCTD12 (Homo sapiens, UniProt Q96CX2); assay: Binding affinity to recombinant human 6X His-tagged KCTD12 T1 domain (27 to 131 residues) expressed in Escherichia coli BL21 DE3 cells preincubated for 1 hr followed by probing with HRP-conjugated 6X-His tag antibody for 0.5 hrs by SPOT peptide microarray analysis
T1 sequence (Q96CX2 whole entry, the tested form may be a part): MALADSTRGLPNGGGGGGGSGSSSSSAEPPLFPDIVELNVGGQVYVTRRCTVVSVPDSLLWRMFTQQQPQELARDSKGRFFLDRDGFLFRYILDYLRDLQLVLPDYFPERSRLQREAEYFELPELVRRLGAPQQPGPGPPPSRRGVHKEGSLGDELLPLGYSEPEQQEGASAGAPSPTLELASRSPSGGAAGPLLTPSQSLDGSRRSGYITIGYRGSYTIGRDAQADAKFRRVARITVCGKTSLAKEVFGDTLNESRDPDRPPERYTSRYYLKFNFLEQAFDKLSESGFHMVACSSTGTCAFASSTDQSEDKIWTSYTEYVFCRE

[2] = biological target: T1, BTB/POZ domain-containing protein KCTD12; assay: Displacement of TAMRA-AAG-SLQLPILHHAYLPSIGGV from recombinant human 6X His-tagged KCTD12 T1 domain (27 to 131 residues) expressed in Escherichia coli BL21 DE3 cells by fluorescence polarization assay
[3] = biological target: BTB/POZ domain-containing protein KCTD16 (Homo sapiens) (UniProt Q68DU8); assay: Binding affinity to Myc-tagged full length KCTD16 (unknown origin) expressed in HEK293 cells using resin-bound immobilized compound by pull down analysis; assay type: cell-based
Chain of BTB/POZ domain-containing protein KCTD16 (Homo sapiens) (Q68DU8 whole entry, the tested form may be a part): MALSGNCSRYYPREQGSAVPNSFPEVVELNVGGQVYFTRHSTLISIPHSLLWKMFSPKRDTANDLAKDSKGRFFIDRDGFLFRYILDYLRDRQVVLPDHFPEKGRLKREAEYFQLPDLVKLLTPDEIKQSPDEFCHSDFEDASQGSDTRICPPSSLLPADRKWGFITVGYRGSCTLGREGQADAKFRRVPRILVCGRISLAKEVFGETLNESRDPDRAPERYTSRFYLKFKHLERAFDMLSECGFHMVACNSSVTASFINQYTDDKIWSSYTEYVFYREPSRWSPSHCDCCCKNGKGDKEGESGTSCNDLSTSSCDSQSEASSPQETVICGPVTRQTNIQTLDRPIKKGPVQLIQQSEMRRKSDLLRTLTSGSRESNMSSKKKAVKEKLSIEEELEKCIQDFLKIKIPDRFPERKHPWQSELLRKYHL

[4] = biological target: BTB/POZ domain-containing protein KCTD8 (Mus musculus) (UniProt Q50H33); assay: Binding affinity to KCTD8 in wild type mouse brain membrane using resin-bound immobilized compound incubated for overnight by pull-down experiment based immunoblot analysis; assay type: cell membranes
Chain of BTB/POZ domain-containing protein KCTD8 (Mus musculus) (Q50H33 whole entry, the tested form may be a part): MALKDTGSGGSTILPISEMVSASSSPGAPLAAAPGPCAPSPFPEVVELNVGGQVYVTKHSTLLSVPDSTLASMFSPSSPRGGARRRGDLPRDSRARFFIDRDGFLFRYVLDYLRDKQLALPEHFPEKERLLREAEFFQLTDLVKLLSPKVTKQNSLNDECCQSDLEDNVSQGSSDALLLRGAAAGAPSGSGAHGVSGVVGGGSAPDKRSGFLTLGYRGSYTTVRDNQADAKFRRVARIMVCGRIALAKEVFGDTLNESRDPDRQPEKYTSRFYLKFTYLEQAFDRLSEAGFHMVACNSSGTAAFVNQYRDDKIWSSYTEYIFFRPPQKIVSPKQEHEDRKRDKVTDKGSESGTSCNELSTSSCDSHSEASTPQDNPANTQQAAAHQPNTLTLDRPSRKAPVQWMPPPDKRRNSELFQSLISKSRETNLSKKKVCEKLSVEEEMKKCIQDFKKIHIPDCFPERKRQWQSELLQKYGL

[5] = biological target: BTB/POZ domain-containing protein KCTD8 (Homo sapiens) (UniProt Q6ZWB6); assay: Binding affinity to Myc-tagged full length KCTD8 (unknown origin) expressed in HEK293 cells using resin-bound immobilized compound by pull down analysis; assay type: cell-based
Chain of BTB/POZ domain-containing protein KCTD8 (Homo sapiens) (Q6ZWB6 whole entry, the tested form may be a part): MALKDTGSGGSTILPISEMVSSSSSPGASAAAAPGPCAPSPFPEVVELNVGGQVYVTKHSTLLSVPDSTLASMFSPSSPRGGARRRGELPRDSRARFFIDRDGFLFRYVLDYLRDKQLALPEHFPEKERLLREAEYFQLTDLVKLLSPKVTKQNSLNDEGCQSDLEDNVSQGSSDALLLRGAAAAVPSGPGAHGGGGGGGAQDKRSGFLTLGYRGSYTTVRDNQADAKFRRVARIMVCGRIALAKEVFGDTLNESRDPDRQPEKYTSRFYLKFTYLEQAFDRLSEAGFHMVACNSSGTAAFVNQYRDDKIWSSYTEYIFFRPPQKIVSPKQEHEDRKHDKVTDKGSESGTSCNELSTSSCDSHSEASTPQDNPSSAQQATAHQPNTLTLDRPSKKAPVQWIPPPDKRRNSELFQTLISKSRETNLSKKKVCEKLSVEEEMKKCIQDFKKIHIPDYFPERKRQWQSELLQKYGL

[6] = biological target: BTB/POZ domain-containing protein KCTD12 (Mus musculus) (UniProt Q6WVG3); assay: Binding affinity to KCTD12 in wild type mouse brain membrane using resin-bound immobilized compound incubated for overnight by pull-down experiment based immunoblot analysis; assay type: cell membranes
Chain of BTB/POZ domain-containing protein KCTD12 (Mus musculus) (Q6WVG3 whole entry, the tested form may be a part): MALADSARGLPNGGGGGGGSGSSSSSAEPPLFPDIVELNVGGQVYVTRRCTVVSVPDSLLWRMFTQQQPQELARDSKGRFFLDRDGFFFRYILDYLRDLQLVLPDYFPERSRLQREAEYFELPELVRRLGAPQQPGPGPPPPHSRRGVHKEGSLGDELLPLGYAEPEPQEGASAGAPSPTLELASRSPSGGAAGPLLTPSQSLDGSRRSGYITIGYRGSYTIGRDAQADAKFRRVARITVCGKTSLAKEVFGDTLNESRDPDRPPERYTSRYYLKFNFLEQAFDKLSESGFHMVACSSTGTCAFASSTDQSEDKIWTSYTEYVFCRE

[7] = biological target: BTB/POZ domain-containing protein KCTD16 (Homo sapiens) (UniProt Q68DU8); assay: Displacement of TAMRA-AAG-SLQLPILHHAYLPSIGGV from recombinant 6X His tagged KCTD16 T1 domain (unknown origin) by fluorescence polarization assay
[8] = biological target: BTB/POZ domain-containing protein KCTD16 (Homo sapiens) (UniProt Q68DU8); assay: Binding affinity to recombinant 6X His-tagged KCTD16 T1 domain (unknown origin) assessed as high-order oligomer formation by measuring oligomer molecular weight at protein:compound concentration ratio of 1:2 by SEC-MALS analysis (reference value: […] +/- 2.5 kDa)
[9] = biological target: BTB/POZ domain-containing protein KCTD16 (Homo sapiens) (UniProt Q68DU8); assay: Binding affinity to recombinant 6X His-tagged KCTD16 T1 domain (unknown origin) assessed as increase in thermal stability of the protein at protein:compound ratio of 1:5 by Thermofluor analysis
[10] = biological target: BTB/POZ domain-containing protein KCTD16 (Mus musculus) (UniProt Q5DTY9); assay: Binding affinity to KCTD16 in wild type mouse brain membrane using resin-bound immobilized compound incubated for overnight by pull-down experiment based immunoblot analysis; assay type: cell membranes
Chain of BTB/POZ domain-containing protein KCTD16 (Mus musculus) (Q5DTY9 whole entry, the tested form may be a part): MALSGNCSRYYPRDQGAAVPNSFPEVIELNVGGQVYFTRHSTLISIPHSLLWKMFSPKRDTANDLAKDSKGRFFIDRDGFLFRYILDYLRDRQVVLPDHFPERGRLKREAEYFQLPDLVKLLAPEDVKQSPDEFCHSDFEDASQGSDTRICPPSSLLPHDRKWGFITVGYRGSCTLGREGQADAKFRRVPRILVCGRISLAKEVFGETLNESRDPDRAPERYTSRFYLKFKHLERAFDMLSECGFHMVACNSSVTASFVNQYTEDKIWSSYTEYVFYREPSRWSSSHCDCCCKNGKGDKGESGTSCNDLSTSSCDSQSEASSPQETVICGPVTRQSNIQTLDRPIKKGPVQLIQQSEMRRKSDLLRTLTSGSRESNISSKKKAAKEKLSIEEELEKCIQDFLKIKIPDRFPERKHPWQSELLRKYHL

[11] = biological target: BTB/POZ domain-containing protein KCTD12 (Mus musculus) (UniProt Q6WVG3); assay: Binding affinity to KCTD12 in wild type mouse brain cytoplasmic fraction using resin-bound immobilized compound incubated for overnight by pull-down experiment based immunoblot analysis; assay type: subcellular
[12] = biological target: BTB/POZ domain-containing protein KCTD8 (Homo sapiens) (UniProt Q6ZWB6); assay: Displacement of TAMRA-AAG-SLQLPILHHAYLPSIGGV from recombinant human 6X His-tagged KCTD8 T1 domain (37 to 148 residues) expressed in Escherichia coli BL21 DE3 cells by fluorescence polarization assay
[13] = biological target: BTB/POZ domain-containing protein KCTD16 (Mus musculus) (UniProt Q5DTY9); assay: Binding affinity to KCTD16 in wild type mouse brain cytoplasmic fraction using resin -bound immobilized compound incubated for overnight by pull-down experiment based immunoblot analysis; assay type: subcellular
[14] = biological target: BTB/POZ domain-containing protein KCTD8 (Mus musculus) (UniProt Q50H33); assay: Binding affinity to KCTD8 in wild type mouse brain cytoplasmic fraction using resin-bound immobilized compound incubated for overnight by pull-down experiment based immunoblot analysis; assay type: subcellular

Molecule: H-HPPTPPEPSGGLPRG-OH
EC50 [1]: Not Active

Molecule: H-NRELEKIIAEKEERV-OH
EC50 [1]: Not Active

Molecule: H-GSSTNNNEEEKSRLL-OH
EC50 [1]: Not Active

Molecule: H-SLQLPILHHAYLPYYHYY-OH
IC50 [2]: Nd(Insoluble) | Ki [2]: Nd(Insoluble) | EC50 ([1]; read-out: EC50): 1360 nM

Molecule: H-KTGSSTNNNEEEKSR-OH
EC50 [1]: Not Active

Molecule: H-SLQLPILHHAYLPSYHYY-OH
IC50 [2]: Nd(Insoluble) | Ki [2]: Nd(Insoluble) | EC50 ([1]; read-out: EC50): 210 nM

Molecule: H-SLQLPILHHAYLPSIGGV-OH
Activity [3]: Active | Activity [4]: Active | Activity [5]: Active | Activity [6]: Active | Activity [7]: Active | Activity [8]: 66.4 kDa | Activity [9]: Active | Activity [10]: Active | Activity [11]: Active | Activity [12]: Active | Activity [13]: Active | Activity [14]: Active

Molecule: H-SLQLPILHHAYLPSI-OH
Activity [1]: Active

Molecule: H-STNNNEEEKSRLLEK-OH
EC50 [1]: Not Active

Molecule: H-EPSGGLPRGPPEPPD-OH
EC50 [1]: Not Active

Molecule: H-ELEKIIAEKEERVSE-OH
EC50 [1]: Not Active

Molecule: H-QDTMKTGSSTNNNEE-OH
EC50 [1]: Not Active

Molecule: H-LEKENRELEKIIAEK-OH
EC50 [1]: Not Active

Molecule: CC(C)C[C@H](NC(=O)[C@H](CCCNC(=N)N)NC(=O)[C@H](CC(=O)O)NC(=O)[C@@H]1CCCN1C(=O)[C@@H]1CCCN1C(=O)[C@H](CCC(=O)O)NC(=O)[C@@H]1CCCN1)C(=O)N[C@@H](CO)C(=O)N[C@@H](CS)C(=O)N[C@@H](CC(=O)O)C(=O)NCC(=O)N[C@@H](CO)C(=O)N[C@@H](CCCNC(=N)N)C(=O)N[C@H](C(=O)N[C@@H](Cc1cnc[nH]1)C(=O)O)C(C)C
EC50 [1]: Not Active

Molecule: H-LPILHHAYLPSIGGV-OH
Activity [1]: Active

Molecule: CC[C@H](C)[C@H](NC(=O)C(CO)NC(=O)[C@@H]1CCCN1C(=O)[C@H](CC(C)C)NC(=O)[C@H](C)NC(=O)[C@H](C)NC(=O)[C@H](Cc1cnc[nH]1)NC(=O)[C@H](Cc1cnc[nH]1)NC(=O)[C@H](CC(C)C)NC(=O)[C@@H](NC(=O)[C@@H]1CCCN1C(=O)[C@H](CC(C)C)NC(=O)[C@H](CCC(N)=O)NC(=O)[C@H](CC(C)C)NC(=O)[C@@H](N)CO)[C@@H](C)CC)C(=O)NCC(=O)NCC(=O)N[C@H](C(=O)O)C(C)C (some centres not stated) (H-SLQLPILHHAALP[ξS]IGGV-OH)
IC50 [2]: Not Active | Ki [2]: Not Active | EC50 [1]: Not Active

Molecule: H-PTPPEPSGGLPRGPP-OH
EC50 [1]: Not Active

Molecule: H-KEERVSELRHQLQSR-OH
EC50 [1]: Not Active

Molecule: H-EEKSRLLEKENRELE-OH
EC50 [1]: Not Active

Molecule: H-GPPEPPDRLSCDGSR-OH
EC50 [1]: Not Active

Continued, values first:

Activity [1]: Active
Molecule: H-LQLPILHHAYLPSIG-OH

IC50 [2]: Not Active | Ki [2]: Not Active | EC50 [1]: Not Active
Molecule: CC[C@H](C)[C@H](NC(=O)C(CO)NC(=O)[C@@H]1CCCN1C(=O)[C@H](CC(C)C)NC(=O)[C@H](Cc1ccccc1)NC(=O)[C@H](C)NC(=O)[C@H](Cc1cnc[nH]1)NC(=O)[C@H](Cc1cnc[nH]1)NC(=O)[C@H](CC(C)C)NC(=O)[C@@H](NC(=O)[C@@H]1CCCN1C(=O)[C@H](CC(C)C)NC(=O)[C@H](CCC(N)=O)NC(=O)[C@H](CC(C)C)NC(=O)[C@@H](N)CO)[C@@H](C)CC)C(=O)NCC(=O)NCC(=O)N[C@H](C(=O)O)C(C)C (some centres not stated) (H-SLQLPILHHAFLP[ξS]IGGV-OH)

EC50 [1]: Not Active
Molecule: H-NNNEEEKSRLLEKEN-OH

EC50 [1]: Not Active
Molecule: H-NEEEKSRLLEKENRE-OH

EC50 [1]: Not Active
Molecule: H-KENRELEKIIAEKEE-OH

EC50 [1]: Not Active
Molecule: H-SGGLPRGPPEPPDRL-OH

EC50 [1]: Not Active
Molecule: CC(C)C[C@H](NC(=O)CNC(=O)CNC(=O)[C@H](CO)NC(=O)[C@@H]1CCCN1C(=O)[C@H](CCC(=O)O)NC(=O)[C@@H]1CCCN1C(=O)[C@@H]1CCCN1C(=O)[C@H](NC(=O)[C@@H]1CCCN1C(=O)[C@@H]1CCCN1C(=O)[C@H](Cc1cnc[nH]1)NC(=O)[C@H](CCCNC(=N)N)NC(=O)[C@@H](N)CCCNC(=N)N)[C@@H](C)O)C(=O)N1CCC[C@H]1C(=O)O

EC50 [1]: Not Active
Molecule: H-EAQDTMKTGSSTNNN-OH

Activity [1]: Active
Molecule: H-QLPILHHAYLPSIGG-OH

Activity [3]: Active | Activity [4]: Active | Activity [5]: Active | Activity [6]: Active | Activity [8]: 60.1 kDa | Activity [9]: Active | Activity [10]: Active | Activity [11]: Active | Activity [13]: Active | Activity [14]: Active
Molecule: CC[C@H](C)[C@H](NC(=O)[C@H](CO)NC(=O)[C@@H]1CCCN1C(=O)[C@H](CC(C)C)NC(=O)[C@H](Cc1ccc(O)cc1)NC(=O)[C@H](C)NC(=O)[C@H](Cc1cnc[nH]1)NC(=O)[C@H](Cc1cnc[nH]1)NC(=O)[C@H](CC(C)C)NC(=O)[C@H](NC(=O)[C@@H]1CCCN1C(=O)[C@H](Cc1ccc(O)cc1)NC(=O)[C@H](CC(N)=O)NC(=O)[C@H](Cc1ccc(O)cc1)NC(=O)[C@H](N)Cc1ccc(O)cc1)[C@@H](C)CC)C(=O)NCC(=O)NCC(=O)N[C@H](C(=O)O)C(C)C

EC50 [1]: Not Active
Molecule: H-PRGPPEPPDRLSCDG-OH

Activity [3]: inactive | Activity [4]: inactive | Activity [5]: inactive | Activity [6]: inactive | Activity [10]: inactive | Activity [11]: inactive | Activity [13]: inactive | Activity [14]: inactive
Molecule: H-SLQLPIAHHAALPSIGGV-OH

EC50 [1]: Not Active
Molecule: H-KSRLLEKENRELEKI-OH

EC50 [1]: Not Active
Molecule: H-PPEPSGGLPRGPPEP-OH

EC50 [1]: Not Active
Molecule: H-RLLEKENRELEKIIA-OH

EC50 [1]: Not Active
Molecule: H-EKIIAEKEERVSELR-OH

Activity [7]: Active | Activity [12]: Active
Molecule: CC[C@H](C)[C@H](NC(=O)[C@H](CO)NC(=O)[C@@H]1CCCN1C(=O)[C@H](CC(C)C)NC(=O)[C@H](Cc1ccc(O)cc1)NC(=O)[C@H](C)NC(=O)[C@H](Cc1cnc[nH]1)NC(=O)[C@H](Cc1cnc[nH]1)NC(=O)[C@H](CC(C)C)NC(=O)[C@H](NC(=O)[C@@H]1CCCN1C(=O)[C@H](CC(C)C)NC(=O)[C@H](CCC(N)=O)NC(=O)[C@H](CC(C)C)NC(=O)[C@H](CO)NC(=O)[C@H](CC(C)C)NC(=O)[C@H](CCCNC(=N)N)NC(=O)[C@@H](N)CCCNC(=N)N)[C@@H](C)CC)C(=O)O

EC50 [1]: Not Active
Molecule: H-IIAEKEERVSELRHQ-OH

EC50 [1]: Not Active
Molecule: H-GLPRGPPEPPDRLSC-OH

EC50 [1]: Not Active
Molecule: H-AEKEERVSELRHQLQ-OH

EC50 [1]: Not Active
Molecule: H-TMKTGSSTNNNEEEK-OH

Reference: ChEMBL document CHEMBL4321811, “Targeting the γ-Aminobutyric Acid Type B (GABAB) Receptor Complex: Development of Inhibitors Targeting the K+ Channel Tetramerization Domain (KCTD) Containing Proteins/GABAB Receptor Protein-Protein Interaction” (J Med Chem, 2019)
